Measurements published in US20070048372A1, “Method for treating non-inflammatory osteoarthritic pain” (SRZ Properties, Inc., priority 2005, published 2007).
“Also recorded” adds a separate entry of the source.

What was measured:
[1] = system: rat formalin paw test (late phase); assay: Rat formalin paw test (late phase): number of flinches and licking time; type: in vivo, rat (Rj: Wistar (Han))
Description: Rats were given an intraplantar injection of 5% formalin (50 μl) into the posterior left paw. This treatment induces a recognizable flinching and licking response of the affected paw in control animals. The number of flinches was counted for 15 minutes, beginning 20 minutes after injection of formalin. The time spent licking the affected paw was also recorded.
Male Rj: Wistar (Han) rats, 10 per group, weighing 100-130 g at the beginning of the experiments were studied per group. The test was performed blind.
Lacosamide (20 mg/kg), gabapentin (50 and 100 mg/kg), combinations of lacosamide (20 mg/kg) with gabapentin (50 and 100 mg/kg), and vehicle were administered i.p. 10 minutes before injection of formalin.
Lacosamide (10 and 20 mg/kg), morphine (2 and 4 mg/kg), combinations of lacosamide (10 and 20 mg/kg) with morphine (2 and 4 mg/kg), and vehicle were administered i.p. 10 minutes before injection of formalin.
Lacosamide (10 mg/kg), duloxetine (8 mg/kg), a combination of lacosamide (10 mg/kg) with duloxetine (8 mg/kg), and vehicle were administered i.p. 10 minutes before injection of formalin.
Lacosamide (10 and 20 mg/kg), memantine (4 and 8 mg/kg), combinations of lacosamide (10 and 20 mg/kg) with memantine (4 and 8 mg/kg), and vehicle were administered i.p. 10 minutes before injection of formalin.
Lacosamide (10 and 20 mg/kg), naproxen (8 and 16 mg/kg), combinations of lacosamide (10 and 20 mg/kg) with […] (8 and 16 mg/kg), and vehicle were administered i.p. 10 minutes before injection of formalin. Morphine (8 mg/kg) was included as a comparative treatment.

[2] = system: muscle pressure hyperalgesia induced by TNF; assay: TNF-induced muscle pressure hyperalgesia (Randall-Selitto, withdrawal threshold to muscle pressure); type: in vivo, rat (Sprague Dawley)
Description: (§1) Adult male Sprague Dawley rats with a body weight of 250 g to 300 g were used (supplier: Charles River, Sulzfeld, Germany). Animals were group-housed (3 animals per cage) and maintained in a room with controlled temperature (21-22° C.) and a reversed light-dark cycle (12 h/12 h) with food and water available ad libitum. All experiments were approved by the Bavarian State animal experimentation committee and carried out in accordance with its regulations.
(§2) Recombinant rat tumor necrosis factor alpha (herein referred to as TNF) was obtained from R&D Systems, Minneapolis, Minn., U.S.A. TNF was diluted in 0.9% NaCl and used in a concentration of 1 μg in 50 μl. Injections were performed in short halothane narcosis with a 30 g needle bilaterally into the gastrocnemius or into the biceps brachii muscle. All rats were used to the behavioral tests before injections and baseline values were recorded over three test days.
Mechanical withdrawal thresholds to muscle pressure were measured with an analgesimeter (Ugo Basile, Comerio, Italy). The rat was allowed to crawl into a sock which helps the rat to relax. The hind limbs were positioned such that an increasing pressure could be applied onto the gastrocnemius muscle (maximum 250 g). The pressure needed to elicit withdrawal was recorded. Means of 3 trials for each hind limb were calculated (interstimulus interval of >30 sec). Only animals with a significant TNF effect were included for further analysis.
Rats were injected with TNF into the gastrocnemius muscle at 2 pm. Eighteen hours later, rats were tested for pressure hyperalgesia pre- and post-administration of the test drug. Rats were tested for pressure hyperalgesia 30 to 60 minutes after drug administration.
(§3) The rats, initially 10 per group, were treated with either 3, 10 or 30 mg/kg lacosamide, 2 mg/kg metamizol, 30 or 100 mg/kg pregabalin, 100 mg/kg gabapentin, or the NaCl vehicle, i.p. (intraperitoneally). Volume of i.p. injections was 0.5 ml. A pilot study was performed to confirm that i.m. (intramuscular) injection of 1 μg TNF into the gastrocnemius muscle was sufficient to induce pressure hyperalgesia.
(§4) Data are shown in graphs displaying means and standard errors of the means (SEM). Pre- and post-treatment data were compared using ANOVA (analysis of variance) and a Tukey post hoc test. Means of treatment groups were compared using a one-way ANOVA and Dunnett's post hoc test. Maximal possible effects (MPE) were calculated for all types of treatment.

[3] = system: biceps muscle grip strength after TNF-induced muscle pain; assay: Biceps muscle grip strength after TNF-induced muscle pain; type: in vivo, rat (Sprague Dawley); conditions: 100 mg/kg i.p.
Description: as §1, §2
Grip strength of the forelimbs was tested with a digital grip force meter (DFIS series, Chatillon, Greensboro, NC, U.S.A.). The rat was positioned to grab the grid with the forelimbs and was gently pulled so that the grip strength could be recorded. Means of three trials were calculated. The effect of the TNF treatment was calculated for each animal separately and only animals with a significant TNF effect were included for further analysis.
Rats were injected with TNF into the biceps brachii muscle at 8 am. Six hours later, grip strength of the forelimbs was tested with a digital grip force meter. Test drug was administered, and grip strength was again tested after 30 to 60 minutes.
as §3, §4

[4] = system: monosodium iodoacetate-induced tactile allodynia; assay: Monosodium iodoacetate-induced tactile allodynia (von Frey filaments); type: in vivo, rat (Wistar); conditions: 3 mg/kg s.c., 60 minutes before test
[5] = system: monosodium iodoacetate-induced mechanical hyperalgesia; assay: Monosodium iodoacetate-induced mechanical hyperalgesia (Randall-Selitto paw pressure); type: in vivo, rat (Wistar); conditions: 3 mg/kg s.c.
[6] = Example 3, 100 mg/kg i.p. alone
[7] = Example 4, 2 and 4 mg/kg i.p. alone, did not reach statistical significance

CNCC[C@H](Oc1cccc2ccccc12)c1cccs1 [Duloxetine]
Licking time % change (a) compared with vehicle control ([1]; Example 5, 8 mg/kg i.p. alone): −26% (a) | Licking time (seconds) mean ± SEM ([1]; Example 5, 8 mg/kg i.p. alone): 195.5 ± 45.0 NS (a) seconds | No. of flinches % change (a) compared with vehicle control ([1]; Example 5, 8 mg/kg i.p. alone): −1% (a) | No. of flinches mean ± SEM ([1]; Example 5, 8 mg/kg i.p. alone): 149.6 ± 27.3 NS (a) | effects on the number of flinches and the time spent licking ([1]; Example 5, 8 mg/kg i.p. alone): had no clear effects

NCC1(CC(=O)O)CCCCC1 [Gabapentin]
MPE (maximal possible effect) on muscle pressure hyperalgesia, compared with vehicle ([2]; 100 mg/kg i.p.): significantly different from vehicle | reversal of muscular mechanical hyperalgesia (withdrawal threshold to muscle pressure) ([2]; 100 mg/kg i.p., 18 h after TNF i.m., 30 to 60 minutes after drug): significant reversal | full reversal of the muscle hyperalgesia ([2]; doses tested: pregabalin 30 and 100 mg/kg, gabapentin 100 mg/kg i.p.): Neither pregabalin nor gabapentin led to a full reversal | Licking time % change (a) compared with vehicle control ([1]; Example 3, 50 mg/kg i.p. alone): −28% (a) | Licking time (seconds) mean ± SEM ([1]; Example 3, 50 mg/kg i.p. alone): 161.0 ± 27.3 NS (a) seconds | No. of flinches % change (a) compared with vehicle control ([1]; Example 3, 50 mg/kg i.p. alone): −24% (a) | No. of flinches mean ± SEM ([1]; Example 3, 50 mg/kg i.p. alone): 97.4 ± 23.8 NS (a) | decrease of the number of flinches as compared with vehicle controls ([1]; Example 3, 50 mg/kg i.p. alone): 24% | decrease of the time spent licking as compared with vehicle controls ([1]; Example 3, 50 mg/kg i.p. alone): 28% | Licking time % change (a) compared with vehicle control [1, 6]: −60% (a) | Licking time (seconds) mean ± SEM [1, 6]: 90.0 ± 22.5 (a) seconds | No. of flinches % change (a) compared with vehicle control [1, 6]: −31% (a) | No. of flinches mean ± SEM [1, 6]: 88.1 ± 19.4 NS (a) | decrease of the number of flinches as compared with vehicle controls [1, 6]: 31% | decrease of the time spent licking as compared with vehicle controls [1, 6]: 60% | MPE (maximal possible effect) on biceps muscle grip strength, compared with vehicle [3]: significantly different from vehicle | reversal of TNF-induced reduction of grip strength ([3]; 6 h after TNF i.m., 30 to 60 minutes after drug): significant reversal; also recorded: improved grip strength

CC12CC3CC(C)(C1)CC(N)(C3)C2 [Memantine]
Licking time % change (a) compared with vehicle control ([1]; Example 6, 4 mg/kg i.p. alone): +25% (a) | Licking time (seconds) mean ± SEM ([1]; Example 6, 4 mg/kg i.p. alone): 219.9 ± 21.8 NS (a) seconds | No. of flinches % change (a) compared with vehicle control ([1]; Example 6, 4 mg/kg i.p. alone): −3% (a) | No. of flinches mean ± SEM ([1]; Example 6, 4 mg/kg i.p. alone): 161.4 ± 26.3 NS (a) | increase of the time spent licking as compared with vehicle controls ([1]; Example 6, 4 mg/kg i.p. alone): 25% | Licking time % change (a) compared with vehicle control ([1]; Example 6, 8 mg/kg i.p. alone): +35% (a) | Licking time (seconds) mean ± SEM ([1]; Example 6, 8 mg/kg i.p. alone): 237.3 ± 18.9 (a) seconds | No. of flinches % change (a) compared with vehicle control ([1]; Example 6, 8 mg/kg i.p. alone): −20% (a) | No. of flinches mean ± SEM ([1]; Example 6, 8 mg/kg i.p. alone): 132.3 ± 24.6 NS (a) | increase of the time spent licking as compared with vehicle controls ([1]; Example 6, 8 mg/kg i.p. alone): 35% | effect on the number of flinches as compared with vehicle controls ([1]; Example 6, 4 and 8 mg/kg i.p. alone): did not clearly affect

CN1CC[C@]23c4c5ccc(O)c4O[C@H]2[C@@H](O)C=C[C@H]3[C@H]1C5 [Morphine]
tactile allodynia of iodoacetate-treated rats (von Frey) ([4]; day 3): improved tactile allodynia | tactile allodynia of iodoacetate-treated rats (von Frey) ([4]; day 7): improved tactile allodynia | tactile allodynia of iodoacetate-treated rats (von Frey) ([4]; day 14): not on day 14 | Licking time % change (a) compared with vehicle control ([1]; Example 4, 2 mg/kg i.p. alone): −1% (a) | Licking time (seconds) mean ± SEM ([1]; Example 4, 2 mg/kg i.p. alone): 289.3 ± 30.7 NS (a) seconds | No. of flinches % change (a) compared with vehicle control ([1]; Example 4, 2 mg/kg i.p. alone): −7% (a) | No. of flinches mean ± SEM ([1]; Example 4, 2 mg/kg i.p. alone): 139.5 ± 25.3 NS (a) | Licking time % change (a) compared with vehicle control ([1]; Example 4, 4 mg/kg i.p. alone): −20% (a) | Licking time (seconds) mean ± SEM ([1]; Example 4, 4 mg/kg i.p. alone): 234.9 ± 37.3 NS (a) seconds | No. of flinches % change (a) compared with vehicle control ([1]; Example 4, 4 mg/kg i.p. alone): −37% (a) | No. of flinches mean ± SEM ([1]; Example 4, 4 mg/kg i.p. alone): 94.3 ± 21.1 NS (a) | effect on the number of flinches as compared with vehicle controls [1, 7]: dose-dependently decreased | effect on the time spent licking as compared with vehicle controls [1, 7]: dose-dependently decreased | Licking time % change (a) compared with vehicle control ([1]; Example 7, 8 mg/kg i.p. alone): −100% (a) | Licking time (seconds) mean ± SEM ([1]; Example 7, 8 mg/kg i.p. alone): 0.0 ± 0.0 (a) seconds | No. of flinches % change (a) compared with vehicle control ([1]; Example 7, 8 mg/kg i.p. alone): −100% (a) | No. of flinches mean ± SEM ([1]; Example 7, 8 mg/kg i.p. alone): 0.2 ± 0.1 (a) | effect on flinching and the time spent licking as compared with vehicle controls ([1]; Example 7, 8 mg/kg i.p. alone): eliminated flinching and the time spent licking | paw pressure withdrawal threshold compared to iodoacetate/vehicle treated animals (mechanical hyperalgesia) ([5]; day 3): increase in paw pressure withdrawal threshold | mechanical hyperalgesia (paw pressure withdrawal threshold) ([5]; day 7): reduced mechanical hyperalgesia
